Measurements reported in publication PMC12040169 (PLOS Biology, 2025).

Assay: in vitro
Details: human, hela cells, % viability

Compound	viability at 28.5 h, 10 µM [%]
Cc1ccc(NC(=O)c2cncc(-c3ccc(C(=O)N4CCOCC4)cc3)c2)c(O)c1 [CBK160208]	84.3
CC(=O)N1CCc2ccc(NC(=O)c3cncc(-c4ccc(C(=O)N5CCOCC5)cc4)c3)cc21 [CBK160217]	77.8
COCCNC(=O)c1cnn2c(C)c(Cc3ccccc3C)c(C)nc12 [CBK160253]	94.5
COC(=O)c1cnn2c(C)c(Cc3cccc(Br)c3)c(C)nc12 [CBK160273]	90.4
O=C(Cc1c(O)c2ccccc2[nH]c1=O)NCc1ccc(Cl)cc1 [CBK160317]	101
O=C(NCc1ccccc1)c1ccc2[nH]c(=O)c(-c3ccccc3)c(O)c2c1 [CBK160318]	84
O=C(Cc1c(O)c2ccccc2[nH]c1=O)NCc1ccccc1Cl [CBK160320]	88
CCNC(=O)c1cncc(-c2[nH]nnc2-c2ccccc2)c1 [CBK160354]	96.9
O=C(c1cncc(-c2[nH]nnc2-c2ccccc2)c1)N1CCCC1 [CBK160360]	91.7
O=S(=O)(Nc1cccc(-c2nnn[nH]2)c1)c1ccc(Br)s1 [CBK160377]	101
CNC(=O)c1cccc(NS(=O)(=O)c2sc3ccc(Cl)cc3c2C)c1 [CBK160383]	89.3
COC(=O)C1C=C(NS(=O)(=O)c2ccc(-c3ccnc(SC)n3)s2)C=CC1 (centres unmarked) [CBK160388]	104
COC(=O)c1cccc(N(C)S(=O)(=O)c2sc3ccc(Cl)cc3c2C)c1 [CBK160390]	94.1
CCOC(=O)c1ccc(NCc2c(O)ccc3oc4c(c23)CCCC4)cc1 [CBK160394]	97.7
COc1ccccc1NCc1c(O)c(Br)cc2oc3c(c12)CCCC3 [CBK160398]	93.4
CS(=O)(=O)Nc1cccc(C(=O)O)c1 [CBK160404]	96.3
Cc1ccc(CN(C2CCN(C)CC2)S(=O)(=O)c2ccccc2F)cc1 [CBK160444T]	90.8
Cc1ccc(CN(C2CCN(C)CC2)S(=O)(=O)c2ccc(F)cc2F)cc1 [CBK160448T]	97.5
Cc1onc(-c2ccccc2)c1C(=O)N1CCC1 [CBK160450]	90.6

Compound	viability at 28.5 h, 10 µM [%]
CC(=O)CCC(=O)N1CCN(C(=O)c2ccc(-c3ccc(S(C)(=O)=O)cc3)cn2)CC1 [CBK160484]	105
CC(C)(C)c1ccc(CN2CCN(C(=O)c3ccc(-c4ccc(S(C)(=O)=O)cc4)cn3)CC2)cc1 [CBK160487]	96.1
COc1ccc(CCN(CCN2CCOCC2)C(=O)NCc2ccc3c(c2)OCO3)cc1OC [CBK160540]	93.3
CCN(CC)C(=O)CN(CCc1ccc(OC)c(OC)c1)C(=O)NCc1cc(C)on1 [CBK160581]	96.1
COc1ccccc1CN(C1CCNCC1)S(=O)(=O)c1c(Cl)cccc1Cl [CBK160807T]	89.2
Brc1c(OCc2ccccc2)ccc2[nH]ccc12 [CBK160845]	96.5
NC(=O)CCNC(=O)C1(c2ccccc2)CCCC1 [CBK160929]	104
NCCNC(=O)c1cc(-c2ccc(Cl)cc2)[nH]n1 [CBK160975]	110
NCC(O)CNC(=O)c1cc(-c2ccc(Cl)cc2)[nH]n1 (centres unmarked) [CBK160977]	87
CCc1ccc(CNC(=O)Cn2nnc(-c3ccc(CNCC4CC4)cc3)n2)cc1 [CBK161032C]	109
COc1cccc(CN2CCOC3(CCN(C(=O)OCc4ccccc4)CC3)C2)c1 [CBK161098T]	95.4
COc1cc(CN2CCOC3(CCN(C(=O)OCc4ccccc4)CC3)C2)cc(OC)c1OC [CBK161104T]	79.4
O=C(OCc1ccccc1)N1CCC2(CC1)CN(c1ccc([N+](=O)[O-])cn1)CCO2 [CBK161111T]	92
Cc1cc(C)c(C#N)c(N2CCOC3(CCN(C(=O)OCc4ccccc4)CC3)C2)n1 [CBK161114T]	91
COc1cc(OC)nc(CN2CCOC3(CCN(C(=O)c4ccc5ccccc5c4)CC3)C2)n1 [CBK161121A]	91.6
O=C(O)c1cccc(S(=O)(=O)Nc2nc3c(Cl)cccc3s2)c1 [CBK161135]	96.5
CCOc1ccc2nc(NS(=O)(=O)c3cccc(C(=O)O)c3)sc2c1 [CBK161137]	102
O=C(O)c1cccc(S(=O)(=O)Nc2nc3ccccc3s2)c1 [CBK161138]	102
O=C(O)C1CCCN(C(=O)NCc2ccc3c(c2)OCO3)C1 (centres unmarked) [CBK161346]	93.4

Compound	viability at 28.5 h, 10 µM [%]
O=C(O)C1CCCN(C(=O)NCc2ccc(F)cc2)C1 (centres unmarked) [CBK161364]	95.7
O=C(O)C1CCCN(C(=O)NCCOc2ccccc2)C1 (centres unmarked) [CBK161366]	115
COc1ccc(CCNC(=O)N2CCCC(C(=O)O)C2)cc1 (centres unmarked) [CBK161367]	101
Cc1ccc(NC(=O)N2CCCC(C(=O)O)C2)cc1 (centres unmarked) [CBK161371]	89.5
CCOC(=O)CCCNC(=O)N1CCCC(C(=O)O)C1 (centres unmarked) [CBK161374]	83.5
O=C(O)C1CCCN1C(=O)Nc1ccccc1Cl (centres unmarked) [CBK161381]	95.8
COc1ccc(CCNC(=O)N2CCCC2C(=O)O)cc1 (centres unmarked) [CBK161386]	116
COc1cc(C(=O)N2CCC(N(C)C)C2)ccc1Nc1cncc(-c2cc3ccccc3[nH]2)n1 (centres unmarked) [CBK161475]	90.6
COc1cccc2cc(C(=O)NCc3ccc(NS(C)(=O)=O)cc3)oc12 [CBK161479]	70.8
CC(C)c1ccc(/C=C/C(=O)NCc2ccc(S(N)(=O)=O)cc2)cc1 [CBK161511]	110
NS(=O)(=O)c1ccc(CNC(=O)C2(c3ccccc3)CCCC2)cc1 [CBK161523]	101
Cc1ccc(CNC(=O)C2(c3ccccc3)CCCC2)cc1F [CBK161529]	85.6
CC(C)c1ccc(CNC(=O)C2(c3ccccc3)CCCC2)cc1 [CBK161531]	96.8
N#CCCCN1CCC(Oc2nccnc2OCc2ccc(Cl)cc2Cl)CC1 [CBK161568]	94.4
N#CCCCN1CCC(Oc2nccnc2OCc2cccc3ccccc23)CC1 [CBK161571]	99.3
CC(C)c1ccc(COc2nccnc2OC2CCN(CCCC#N)CC2)cc1 [CBK161576]	96.5
Clc1ccc(COc2nccnc2OCC2CCCO2)cc1Cl (centres unmarked) [CBK161587]	105
Clc1ccc(COc2nccnc2OCc2cccnc2)cc1Cl [CBK161597]	85
CC(COC(C)(C)C)Oc1nccnc1OCc1ccc(Cl)c(Cl)c1 (centres unmarked) [CBK161607]	113

Same assay, conditions: human, hela cells, % viability, bulk resorufin, single well

Compound	viability at 28.5 h, 10 µM [%]
CS(=O)(=O)c1ccc(-c2ccc3c(c2)COC2(CCN(C(=O)CCCc4ccc(F)cc4)CC2)O3)cc1 [CBK160586]	92.5
CS(=O)(=O)c1ccc(-c2ccc3c(c2)COC2(CCN(C(=O)CC4CCCCC4)CC2)O3)cc1 [CBK160589]	96.7
CS(=O)(=O)c1ccc(-c2ccc3c(c2)COC2(CCN(C(=O)Cc4cccc(C(F)(F)F)c4)CC2)O3)cn1 [CBK160595]	114
CS(=O)(=O)c1ccc(-c2ccc3c(c2)COC2(CCN(C(=O)CC4CCCCC4)CC2)O3)cn1 [CBK160596]	93.3
CC(C)(N)C(=O)N1CCC2(CC1)OCc1cc(-c3ccc(S(C)(=O)=O)nc3)ccc1O2 [CBK160868]	93.3
